Results: ChEMBL document CHEMBL3046178, “Quantitative Structure-Activity Relationships of Larvicidal N-[5-(Substituted phenyl)-1, 3, 4-thiadiazol-2-yl]-benzamides in the Inhibition of N-Acetylglucosamine Incorporation into a Cultured Integument System” (J Pestic Sci, 1996)

Tests used:
[1] = system: Chilo suppressalis; assay: Insecticidal activity against Chilo suppressalis (rice stem borer) third-instar larvae assessed as mortality at pI50 after 5 days; type: functional
[2] = system: Chilo suppressalis; assay: Insecticidal activity against Chilo suppressalis (rice stem borer) third-instar larvae assessed as mortality after 5 days; type: functional
[3] = system: Chilo suppressalis; assay: Inhibition of chitin synthesis in 20-hydroxyecdysone-stimulated Chilo suppressalis (rice stem borer) larval integument assessed as inhibition of N-acetyl-{1-14C]-glucosamine at pI50 after 72 hr by liquid scintillation counting; type: functional
[4] = system: Chilo suppressalis; assay: Insecticidal activity against Chilo suppressalis (rice stem borer) third-instar larvae assessed as mortality at pI50 after 5 days in presence of piperonyl butoxide; type: functional; parameters: concentration or dose not given beside the values
[5] = system: Chilo suppressalis; assay: Insecticidal activity against Chilo suppressalis (rice stem borer) third-instar larvae assessed as mortality after 5 days in presence of piperonyl butoxide; type: functional
[6] = 1-octanol-water partition co-efficient, log P of the compound; type: physicochemical

Row | SMILES | mortality [1] [%] | pLD50 [2] | inhibition (INH) [3] [%] | mortality [4] [%] | pLD50 [5] | logP [6]
1 | O=C(Nc1nnc(-c2ccc(Cl)cc2)s1)c1ccccc1 | 0 | <5.6 | 10 | – | – | –
2 | CCOc1ccc(-c2nnc(NC(=O)c3c(OC)cccc3OC)s2)cc1 | – | – | – | 6 | <5 | 3.75
3 | O=C(NC(=O)c1c(F)cccc1F)Nc1ccc(Cl)cc1 [DIFLUBENZURON] | – | – | – | – | 6.64 | –
4 | O=C(Nc1nnc(-c2ccc(Cl)cc2)s1)c1ccccc1[N+](=O)[O-] | 0 | <4.6 | 0 | – | – | –
5 | O=C(Nc1nnc(-c2ccc(Cl)cc2)s1)c1ccccc1C(F)(F)F | 0 | <4.6 | 7 | – | – | –
6 | COc1cccc(OC)c1C(=O)Nc1nnc(-c2ccc([N+](=O)[O-])cc2)s1 | – | – | – | 0 | <5 | 2.54
7 | Cc1ccccc1C(=O)Nc1nnc(-c2ccc(Cl)cc2)s1 | 0 | <4.6 | – | – | – | –
8 | COc1ccc(-c2nnc(NC(=O)c3c(OC)cccc3OC)s2)cc1 | – | – | – | 0 | <5 | 3.56
9 | O=C(Nc1nnc(-c2ccc(Cl)cc2)s1)c1ccccc1F | 0 | <4.6 | – | – | – | –
10 | O=C(Nc1nnc(-c2ccc(Cl)cc2)s1)c1c(Cl)cccc1Cl | 5 | <5 | – | – | – | –
11 | O=C(Nc1nnc(-c2ccc(Cl)cc2)s1)c1c(F)cccc1F | 0 | <4.6 | 42 | – | – | –
12 | COc1ccccc1C(=O)Nc1nnc(-c2ccc(Cl)cc2)s1 | – | 5.96 | – | – | – | –
13 | CCOc1ccccc1C(=O)Nc1nnc(-c2ccc(Cl)cc2)s1 | 10 | <5.6 | 23 | – | – | –
14 | COc1cccc(OC)c1C(=O)Nc1nnc(-c2ccccc2)s1 | – | – | – | 0 | <5 | 3.5
15 | COc1cccc(OC)c1C(=O)Nc1nnc(-c2ccc(F)cc2)s1 | – | – | – | 14 | <5 | 3.5
16 | O=C(Nc1nnc(-c2ccc(Cl)cc2)s1)c1ccccc1I | 5 | <4.6 | 17 | – | – | –
17 | COc1cccc(OC)c1C(=O)Nc1nnc(-c2ccc(Br)cc2)s1 | – | – | – | – | 5.57 | 3.96
18 | COc1cccc(OC)c1C(=O)Nc1nnc(-c2ccc(Cl)cc2)s1 | – | 5.96 | – | – | <5.96 | 3.96
19 | O=C(Nc1nnc(-c2ccc(Cl)cc2)s1)c1ccccc1Cl | 41 | <4.6 | 37 | – | – | –
20 | Cc1cccc(C)c1C(=O)Nc1nnc(-c2ccc(Cl)cc2)s1 | – | 5.48 | – | – | – | –
21 | COc1cccc(OC)c1C(=O)Nc1nnc(-c2ccc(C)cc2)s1 | – | – | – | – | 5 | 3.85
22 | COc1cccc(OC)c1C(=O)Nc1nnc(-c2ccc(C#N)cc2)s1 | – | – | – | – | – | 3.14
23 | CCN(CC)c1ccccc1C(=O)Nc1nnc(-c2ccc(Cl)cc2)s1 | 0 | <5 | 8 | – | – | –
24 | O=C(Nc1nnc(-c2ccc(Cl)cc2)s1)c1ccccc1Br | 0 | <4.6 | 32 | – | – | –
